Reference: patent publication US12115208B2, “Small-molecule adjuvants for antibiotics to address antibiotic resistance” (HIGH POINT UNIVERSITY, priority 2017, dated 2024)
Converted amounts (≈) assume the structure as drawn. Like-named read-outs stand apart in the source and are kept apart here. Blank lines part the entries; values can stand above or below the compound they belong to.

Key:
S. aureus ATCC 29213 = experiment: Minimum inhibitory concentration, broth microdilution; assay type: cell-based; conditions: Staphylococcus aureus
Protocol: (§1) The compounds were then analyzed for antibiotic repotentiation activity. […] The tested strains included USA300, which is a common and particularly virulent strain of community-acquired MRSA.

[1] = system: S. aureus ATCC 43300 (MRSA); experiment: as above; assay type: cell-based, Staphylococcus aureus; conditions: 18 h
Protocol: as §1

S. aureus USA300 (MRSA) [2] = experiment: as above; assay type: cell-based, Staphylococcus aureus; conditions: 18 h
Protocol: as §1

S. aureus 43300 (MRSA) = experiment: Antibiotic repotentiation (antibiotic MIC with/without compound); assay type: cell-based, Staphylococcus aureus
Protocol: (§2) The overnight culture was diluted into fresh CAMHB to a concentration of 5×10^5 CFU/ml. […] On the same plate, a standard microdilution MIC with the tested antibiotics and no added compound was also performed to compare the antibiotic MIC in the presence and absence of compound. […] Fold reductions were calculated by dividing the MIC of the antibiotic without compound by the MIC of the antibiotic in the presence of compound.
as §1

S. epidermidis 49461 = experiment: Antibiotic repotentiation (oxacillin MIC with/without compound); assay type: cell-based, Staphylococcus epidermidis; conditions: +75 μM compound, S. epidermidis 49461
Protocol: as §2
Antibiotic potentiation in S. epidermidis was also investigated.

[3] = system: S. epidermidis ATCC 49461 biofilm; experiment: Biofilm inhibition, crystal violet assay; assay type: cell-based, Staphylococcus epidermidis; conditions: Staphylococcus epidermidis, ATCC49461, 30 h, read-out: Inhibition of biofilm formation IC50
Protocol: (§3) A standard static crystal violet assay was used to quantify biofilm inhibition.^45 Cultures of S. aureus or S. epidermidis were grown overnight in TSBG (tryptic soy broth with 5% glucose) at 37° C. with shaking. These cultures were used to inoculate fresh TSBG to a calculated optical density of 0.01 at 600 nm (OD600). […] Untreated aliquots were used as a positive control and water served as a negative control. 100 μl of these suspensions were added to the wells of a 96-well polyvinylchloride microtiter plate. […] After incubation, media was discarded and the plates were washed with water to remove non-adherent cells. Adherent biofilms were stained with 110 μl of crystal violet (0.1% in water) and incubated at room temperature for thirty minutes. The crystal violet staining solution was discarded and plates were washed with water to remove excess stain. The resulting stained biofilms were solubilized with 200 μL of 95% ethanol for 10 minutes. 125 μl of the ethanol solutions were transferred to a clear polystyrene microtiter plate for evaluation. Absorbance at 540 nm was recorded using a BioTek Synergy H1 microplate reader. The absorbance of the negative control lanes was subtracted from the experimental values to account for background staining. Percent inhibition was calculated by comparison of the absorbance values of control versus treated wells under identical conditions.

S. aureus USA100 (MRSA) [4] = experiment: microbe, parasite or virus in culture; assay type: cell-based, Staphylococcus aureus; conditions: compound alone, CAMHB, 18 h
S. aureus USA300 (MRSA) [5] = experiment: Antibiotic repotentiation (antibiotic MIC with/without compound); assay type: cell-based, Staphylococcus aureus; conditions: for Oxacillin MIC / Fold Reduction: +50 μM compound, S. aureus USA300 (MRSA); for Fold Reduction: oxacillin MIC; for MIC of antibiotic: MRSA USA300
Protocol: as §2, §1

S. aureus USA100 (MRSA) [6] = experiment: as above; assay type: cell-based, Staphylococcus aureus
Protocol: as §2

MRSA 43300 biofilm = experiment: Biofilm inhibition, crystal violet assay; assay type: cell-based, Staphylococcus aureus; conditions: 30 h
Protocol: as §3
Antibiotic resistance and biofilm formation share similar regulatory mechanisms. […] Biofilm inhibition was first assessed in S. aureus 43300, a methicillin-resistant strain (see Table 18). As described in Materials and Methods, a standard crystal violet assay was used to assess biofilm inhibition by the tested compounds. The IC50 is described as the compound concentration required to inhibit 50% of biofilm formation. The standard deviation is calculated from at least 3 independent experiments.

[7] = system: S. aureus NR-49120 (VRSA); experiment: Antibiotic repotentiation (antibiotic MIC with/without compound); assay type: cell-based, Staphylococcus aureus; conditions: VRSA NR-49120; for Fold Reduction: antibiotic MIC
Protocol: as §2

[8] = oxacillin MIC, +75 μM compound, S. aureus 43300 (MRSA)
[9] = oxacillin MIC, +150 μM compound, S. aureus 43300 (MRSA)
[10] = compound alone, S. aureus ATCC 43300 (MRSA), CAMHB, read-out: MIC
[11] = compound alone, S. aureus USA300 (MRSA), CAMHB, read-out: MIC
[12] = +50 μM compound, S. aureus 43300 (MRSA)
[13] = oxacillin MIC, +50 μM compound, S. aureus 43300 (MRSA)
[14] = +50 μM compound, S. aureus USA100 (MRSA)
[15] = oxacillin MIC, +50 μM compound, S. aureus USA100 (MRSA)

MIC (S. aureus ATCC 29213; ATCC29213, compound alone, S. aureus ATCC 29213, CAMHB, 18 h, read-out: MIC): 600 µM
MIC ([1]; Staphylococcus aureus, compound alone, S. aureus ATCC 43300 (MRSA), CAMHB, read-out: MIC): 600 µM
MIC (S. aureus USA300 (MRSA) [2]; Staphylococcus aureus, compound alone, S. aureus USA300 (MRSA), CAMHB, read-out: MIC): 600 µM
Oxacillin MIC (S. epidermidis 49461): 8 µg/mL
IC50 [3]: 270 µM
Structure (SMILES): CN1CCN(C2=Nc3ccccc3Oc3ccc(Cl)cc32)CC1 [Loxapine, 2-chloro-11-(4-methyl-1-piperazinyl)dibenz[b,f][1,4]oxazepine, reference compound]
Fold Reduction (S. aureus 43300 (MRSA); [8]): 1
Fold Reduction (S. aureus 43300 (MRSA); [9]): 4
Fold Reduction (S. epidermidis 49461; oxacillin MIC): 2

Structure (SMILES): Brc1cccc2[nH]c3ccccc3c12 [IV-4]
MIC [1, 10]: 200 µM
MIC (S. aureus USA300 (MRSA) [2]; [11]): 100 µM
MIC (S. aureus USA100 (MRSA) [4]): 100 µM (≈ 24.6 µg/mL)
Oxacillin MIC (S. aureus 43300 (MRSA); [12]): 32 µg/mL
Fold Reduction (S. aureus 43300 (MRSA); [13]): 1
Oxacillin MIC (S. aureus USA300 (MRSA) [5]): 2 µg/mL
Fold Reduction (S. aureus USA300 (MRSA) [5]): 32
Oxacillin MIC (S. aureus USA100 (MRSA) [6]; [14]): 4 µg/mL
Fold Reduction (S. aureus USA100 (MRSA) [6]; [15]): 128

Structure (SMILES): Brc1cccc2c1[nH]c1ccccc12 [IV-2]
MIC [1, 10]: >200 µM
MIC (S. aureus USA300 (MRSA) [2]; [11]): >200 µM
MIC (S. aureus USA100 (MRSA) [4]): >200 µM
Oxacillin MIC (S. aureus 43300 (MRSA); [12]): 4 µg/mL
Fold Reduction (S. aureus 43300 (MRSA); [13]): 8
Oxacillin MIC (S. aureus USA300 (MRSA) [5]): 16/8
Fold Reduction (S. aureus USA300 (MRSA) [5]): 4/8
Oxacillin MIC (S. aureus USA100 (MRSA) [6]; [14]): 8 µg/mL
Fold Reduction (S. aureus USA100 (MRSA) [6]; [15]): 64

IC50 (MRSA 43300 biofilm; Staphylococcus aureus, MRSA): 18.7 µM
Structure (SMILES): Clc1ccc2c(c1)Nc1ccccc1CC2 [Compound I-5, 3-chloro-10,11-dihydro-5H-dibenzo[b,f]azepine]
Fold Reduction (S. aureus 43300 (MRSA); [13]): 16

Structure (SMILES): Clc1ccc2[nH]c3ccc(Cl)cc3c2c1 [IV-6]
MIC [1, 10]: >200 µM
MIC (S. aureus USA300 (MRSA) [2]; [11]): >200 µM
MIC (S. aureus USA100 (MRSA) [4]): >200 µM
Oxacillin MIC (S. aureus 43300 (MRSA); [12]): 1 µg/mL
Fold Reduction (S. aureus 43300 (MRSA); [13]): 32
Oxacillin MIC (S. aureus USA300 (MRSA) [5]): 16/8
Fold Reduction (S. aureus USA300 (MRSA) [5]): 4/8
Fold Reduction (S. aureus USA100 (MRSA) [6]; [15]): 1024/2048
IC50 (MRSA 43300 biofilm): 10.2 µM

MIC of antibiotic (S. aureus 43300 (MRSA); +Amoxapine (150 μM), S. aureus 43300 (MRSA)): 0.5 µg/mL
MIC of antibiotic (S. aureus 43300 (MRSA); +Loratadine 25 μM, MRSA 43300): 16 µg/mL
MIC of antibiotic (S. aureus 43300 (MRSA); +Loratadine 50 μM, MRSA 43300): 1 µg/mL
MIC of antibiotic (S. aureus 43300 (MRSA); antibiotic alone, no compound, S. aureus 43300 (MRSA)): 16 µg/mL
MIC of antibiotic (S. aureus 43300 (MRSA); antibiotic alone, S. aureus ATCC 43300 (MRSA)): 64 µg/mL
MIC of antibiotic (S. aureus USA300 (MRSA) [5]; +Loratadine 25 μM): 4 µg/mL
MIC of antibiotic (S. aureus USA300 (MRSA) [5]; +Loratadine 50 μM): 1 µg/mL
MIC of antibiotic (S. aureus USA300 (MRSA) [5]; antibiotic alone): 32 µg/mL
MIC of antibiotic ([7]; +Loratadine 25 μM): 32 µg/mL
MIC of antibiotic ([7]; +Loratadine 50 μM): 8 µg/mL
MIC of antibiotic ([7]; antibiotic alone): 128 µg/mL
MIC of antibiotic (S. aureus USA100 (MRSA) [6]; +Loratadine 25 μM, MRSA USA100): 128 µg/mL
MIC of antibiotic (S. aureus USA100 (MRSA) [6]; +Loratadine 50 μM, MRSA USA100): 1 µg/mL
MIC of antibiotic (S. aureus USA100 (MRSA) [6]; antibiotic alone, MRSA USA100): 256 µg/mL
Structure (SMILES): Cc1nnc(SCC2=C(C(=O)O)N3C(=O)[C@@H](NC(=O)Cn4cnnn4)[C@H]3SC2)s1 [Cefazolin]
Fold Reduction (S. aureus 43300 (MRSA); antibiotic MIC, +Amoxapine (150 μM), S. aureus 43300 (MRSA)): 32
Fold Reduction (S. aureus 43300 (MRSA); antibiotic MIC, +Loratadine 25 μM, MRSA 43300): 4
Fold Reduction (S. aureus 43300 (MRSA); antibiotic MIC, +Loratadine 50 μM, MRSA 43300): 64
Fold Reduction ([7]; +Loratadine 25 μM): 4
Fold Reduction ([7]; +Loratadine 50 μM): 16
Fold Reduction (S. aureus USA100 (MRSA) [6]; antibiotic MIC, +Loratadine 25 μM, MRSA USA100): 2
Fold Reduction (S. aureus USA100 (MRSA) [6]; antibiotic MIC, +Loratadine 50 μM, MRSA USA100): 256

Structure (SMILES): Cc1cc2c(s1)Nc1ccccc1N=C2N1CCN(C)CC1 [Olanzapine, reference compound]
MIC (S. aureus ATCC 29213; ATCC29213, 18 h): 600 µM
MIC ([1]; Staphylococcus aureus): 600 µM
MIC (S. aureus USA300 (MRSA) [2]; Staphylococcus aureus): 600 µM
Fold Reduction (S. aureus 43300 (MRSA); [8]): 1
Fold Reduction (S. aureus 43300 (MRSA); [9]): 1
